Results reported in PubChem BioAssay (NCI).
“And” between values parts separate entries of the source, which are not always exact repeats. Equal entries are not always repeated.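 Protocol summary: plate cells (96-well), add compound at 5 concentrations, incubate 48 h, interpolate endpoints linearly. GI50 marks 50% less growth. TGI: total growth inhibition.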

Experiments:
Experiment in all cases: DTP human tumour cell line panel, 48 h
ACHN renal = tested on: ACHN renal
CCRF-CEM leukemia = tested on: CCRF-CEM leukemia
HCT-15 colon = tested on: HCT-15 colon
HL-60(TB) leukemia = tested on: HL-60(TB) leukemia
K-562 leukemia = tested on: K-562 leukemia
KM12 colon = tested on: KM12 colon
SF-295 CNS = tested on: SF-295 CNS
SNB-19 CNS = tested on: SNB-19 CNS
SNB-75 CNS = tested on: SNB-75 CNS
T-47D breast = tested on: T-47D breast

Compound	GI50 (ACHN renal) [µM]	TGI (ACHN renal) [µM]	GI50 (CCRF-CEM leukemia) [µM]	TGI (CCRF-CEM leukemia)	GI50 (HCT-15 colon)	TGI (HCT-15 colon)	GI50 (HL-60(TB) leukemia)	TGI (HL-60(TB) leukemia) [µM]	GI50 (K-562 leukemia) [µM]	TGI (K-562 leukemia)	GI50 (KM12 colon) [µM]	TGI (KM12 colon)	GI50 (SF-295 CNS)	TGI (SF-295 CNS)	GI50 (SNB-19 CNS)	TGI (SNB-19 CNS) [µM]	GI50 (SNB-75 CNS) [µM]	TGI (SNB-75 CNS)	GI50 (T-47D breast)	TGI (T-47D breast) [µM]
COc1ccc(C2=CC(c3ccc(Oc4ccnc5cc(Cl)ccc45)c(OC)c3)c3c(nc(OC)[nH]c3=O)N2)cc1 (stereo unspecified)	5.24	> 100	3.25	> 100 µM	3.85 µM	> 100 µM	3.51 µM	45.5	3.73	> 100 µM	5.91	> 100 µM	6.42 µM	> 100 µM	61.4 µM	> 100	9.44	> 100 µM	6.83 µM	> 100
COc1cc(/C=C2\CCCC3C2=Nc2ccccc2NC3c2cc(OC)c(OC)c(OC)c2)cc(OC)c1OC (stereo unspecified)	1.66	3.57	0.591	3.6 µM	1.77 µM	4.08 µM	2.44 µM	4.97	2.1	10.3 µM	0.863	2.21 µM	3.65 µM	> 100 µM	8.37 µM	> 100	21.9	> 100 µM	3.75 µM	52.7
C[C@@H]1[C@H]2[C@H](C=C3[C@@H]4CC[C@H]5Cc6nc7c(nc6C[C@]5(C)[C@H]4C[C@@H](O)[C@@]32C)C[C@@H]2CC[C@H]3C4=C[C@@H]5O[C@@]6(CC[C@](C)(CO)O6)[C@@H](C)[C@@]5(O)[C@@]4(C)[C@H](O)C[C@@H]3[C@@]2(C)C7)O[C@]12CCC(C)(C)O2	0.843	> 100	0.317	–	0.43 µM	8.14 µM	0.419 µM	7.76	0.345	2.3 µM	0.73	16.2 µM	0.0698 µM	0.259 µM	0.653 µM	7.28	0.14	9.54 µM	0.405 µM	> 41.8
Nc1ccc(-c2ccc(Nc3cc(S(=O)(=O)O)c(N)c4c3C(=O)c3ccccc3C4=O)cc2)c(S(=O)(=O)O)c1	–	> 100	–	> 100 µM	–	> 100 µM	–	> 100	–	> 100 µM	–	> 100 µM	–	> 100 µM	–	> 100	–	> 100 µM	–	> 100
O=C1c2ccc3c4c(ccc(c24)C(=O)N1CCCNCc1ccccc1)C(=O)N(CCCNCc1ccccc1)C3=O	0.135	0.722	0.17	4.73 µM	0.116 µM	0.316 µM	0.163 µM	0.412	0.136	0.778 µM	0.108	0.288 µM	0.173 µM	0.432 µM	0.13 µM	0.314	0.147	0.291 µM	0.192 µM	0.429
Fc1c[c-]c(-c2ccccn2)c(F)c1.[CH3-].[Pt+2].c1ccc([PH+](c2ccccc2)c2ccccn2)cc1	1.2	2.49	1.38	> 100 µM	1.44 µM	3.59 µM	2.05 µM	7.28	1.78	> 100 µM	2.53	6.49 µM	4.91 µM	62.5 µM	3.25 µM	> 100	1.03	9.9 µM	1.13 µM	5.78
CC(C)(C)OC(=O)N1CC(Cn2cc(C(F)(F)F)c3c(Cl)ncnc32)C1	15	31.9	3.05	9.19 µM	2 µM	4.4 µM	2.37 µM	5.82	2.81	> 100 µM	2.34	5.35 µM	1.99 µM	4.75 µM	1.8 µM	3.33	4.99	18.1 µM	5.51 µM	27.1
c1ccc(CCCNc2nnnc3ccccc23)cc1	–	> 100	–	> 100 µM	–	> 100 µM	–	> 100	–	> 100 µM	–	> 100 µM	–	> 100 µM	–	> 100	–	> 100 µM	–	83
CN(C)CCN1C(=O)c2cccc3c(N)ccc(c23)C1=O	7.9	> 25	9.63	> 25 µM	9.32 µM	> 25 µM	4.33 µM	18.9	6.76	20.4 µM	14.2	> 25 µM	10 µM	> 25 µM	14.3 µM	> 25	> 25	> 25 µM	17 µM	> 25
C=CC(=O)NCCOc1cccc(Nc2cc(NCCCNC(=O)C3CCC3)c(Br)cn2)c1	0.75	> 25	1.04	> 25 µM	1.38 µM	23.3 µM	0.989 µM	> 25	1.16	> 25 µM	0.954	> 25 µM	1.34 µM	23.4 µM	1.08 µM	14	0.252	1.38 µM	4.49 µM	22.7
S=c1nc[nH]c2nc[nH]c12	4.88	> 737	0.972	> 100 µM and 310 µM	3.4 µM and 18.2 µM	> 100 µM and 629 µM and > 750 µM	3.11 µM and 3.31 µM	–	3.34	446 µM and 251 µM	–	> 100 µM and 716 µM and > 707 µM	1.76 µM and 12.3 µM	> 100 µM and 735 µM and > 750 µM	65.9 µM and 213 µM	> 750	–	> 100 µM and 402 µM and > 621 µM	0.812 µM and 5.81 µM	> 627
COc1ccccc1-c1ccc2nc(NC(=O)Nc3cc(C(F)(F)F)cc(C(F)(F)F)c3)sc2c1	2.14	7.71	2.43	15 µM	2.55 µM	10.6 µM	2.01 µM	4.53	1.54	8.95 µM	2.07	6.45 µM	2.64 µM	9.33 µM	2.44 µM	12.2	2.25	11.8 µM	2.16 µM	9.89
NC(=O)c1ccc2nc(-c3ccc(C4(N)CCC4)cc3)c(-c3ccccc3)n2n1	5.97	20.8	1.41	44.4 µM	11.5 µM	33.1 µM	11.5 µM	30.2	13.7	36.9 µM	10.5	25.3 µM	1.26 µM	15.4 µM	11.3 µM	25.8	0.0922	5.21 µM	0.0186 µM	15.8
Nc1c(S(=O)(=O)O)cc(Nc2cccc(S(N)(=O)=O)c2)c2c1C(=O)c1ccccc1C2=O	–	> 100	–	> 100 µM	–	> 100 µM	–	> 100	–	> 100 µM	–	> 100 µM	–	> 100 µM	–	> 100	–	69 µM	–	> 100
Cc1cc(C(=O)N[C@@H](CCC(=O)O)C(=O)O)sc1CC[C@@H]1CNc2nc(N)[nH]c(=O)c2C1	< 0.01	> 100	0.0316	> 100 µM	0.042 µM	> 100 µM	< 0.0124 µM	> 100	< 0.01	> 100 µM	0.046	> 100 µM	0.0496 µM	> 100 µM	0.0853 µM	> 100	0.252	> 100 µM	0.0825 µM	> 100
COc1cc(-c2cc(-c3nc4cc(Cl)c(Cl)cc4[nH]3)[nH]n2)cc(OC)c1OC	3.54	12.8	2.35	6.75 µM	2.89 µM	11.8 µM	3.34 µM	11.6	3.3	24.9 µM	3.56	13.9 µM	3.04 µM	11.5 µM	5.47 µM	22.2	3.12	14.2 µM	1.87 µM	5
O=C1c2ccccc2C(=O)c2c(NC(=O)C(Cl)CCl)cccc21 (stereo unspecified)	–	29	–	2.38 µM	–	23.4 µM	–	2.68	–	0.395 µM	–	8.26 µM	–	> 62.1 µM	–	32.9	–	32.4 µM	–	> 27.5
O=C(CCc1ccco1)NC1CCN(CC2(c3ccc(Cl)cc3)CCC2)CC1	10.5	22.7	13.7	49.9 µM	6.27 µM	20.3 µM	15.5 µM	38.9	2.17	4.62 µM	15.3	31.5 µM	15.5 µM	30.1 µM	15.1 µM	30.7	10	21.7 µM	16.2 µM	46.6
COc1cc(/C=C/C(=O)NC[C@]2(O)CCC3C4CCc5cc(O)ccc5C4CCC32C)ccc1O (stereo partly specified)	9.05	> 100	3.18	86.1 µM	7.41 µM	> 100 µM	3.34 µM	90.7	3.74	28.4 µM	5.68	36 µM	6.71 µM	> 100 µM	49 µM	> 100	42.5	> 100 µM	6.53 µM	> 100
COc1ccc2c(c1)C(=O)c1c-2c(OCCN(C)C)nc2cc(OC)ccc12	0.532	1.9	0.536	2.85 µM	0.475 µM	2.39 µM	1.98 µM	4.26	1.06	2.82 µM	0.759	2.14 µM	2.22 µM	11.5 µM	1.12 µM	6.24	1.99	9.02 µM	6.1 µM	21.8
CCN1/C(=C/C=C/C=C/c2sc3ccccc3[n+]2CC)Sc2ccccc21	0.566	3.28	0.353	> 21.8 µM	1.22 µM	4.7 µM	0.143 µM	0.656	0.0652	0.512 µM	0.378	1.4 µM	0.153 µM	0.508 µM	0.35 µM	1.89	0.243	1.47 µM	0.101 µM	0.669
COc1ccc(S(=O)(=O)NC2=NCCN2C(=S)SN2CCn3c2nsc3=S)cc1OC	28.9	> 100	11.3	30.9 µM	26.2 µM	> 100 µM	> 100 µM	> 100	27.4	> 100 µM	21.2	52 µM	20.9 µM	56.2 µM	26.6 µM	> 100	12.7	46.4 µM	15.3 µM	35.3
O=C(Nc1ccc(Cl)cc1F)c1cc(F)ccc1O	0.83	8.27	3.16	> 100 µM	1.46 µM	9.62 µM	0.622 µM	3.45	0.609	> 100 µM	2.03	5.56 µM	1.8 µM	3.57 µM	0.669 µM	18.6	0.39	6.16 µM	0.904 µM	> 23.5
CNS(=O)(=O)c1ccccc1C(=N)c1ccccc1	–	> 100	–	> 100 µM	–	> 100 µM	–	> 100	–	> 100 µM	–	> 100 µM	–	> 100 µM	–	> 100	–	> 100 µM	–	> 100
O=[N+]([O-])c1cccc(/C=C/c2ccccn2)c1	5.81	> 100	7.91	43 µM	4.84 µM	> 100 µM	49.9 µM	> 100	41.2	> 100 µM	24.2	> 100 µM	35.6 µM	> 100 µM	39 µM	> 100	5.47	75.4 µM	1.82 µM	> 100
OC(COc1cccc2ccccc12)CN1CCN(c2ccc(Cl)cc2)CC1 (stereo unspecified)	11.8	> 100	> 100	> 100 µM	> 100 µM	> 100 µM	> 100 µM	> 100	> 100	> 100 µM	38.3	> 100 µM	11.4 µM	36.9 µM	17 µM	45.4	9.76	27.1 µM	81.3 µM	> 100
